Reference: patent US9695155B2, “Herbicidal substituted pyrimidinyloxy benzene compounds” (E. I. DU PONT DE NEMOURS AND COMPANY, priority 2013, dated 2017)

How the values were obtained:
[1] = system: bluegrass; assay: Test D postemergence; assay type: in vivo, Poa annua; conditions: Poa annua, post-emergence, Postemergence, scale 0 to 100 (0 no effect, 100 complete control), read-out: Plant response rating, Bluegrass
Procedure, shortened: (§1)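 Species were sown in silt loam for preemergence treatment, or grown in peat-based medium to the 1–4-leaf stage (2–18 cm) for postemergence sprays. Test chemicals were formulated in a non-phytotoxic solvent mixture with surfactant. After 7–21 days in a controlled environment, plants were rated visually against controls on a 0 (no effect) to 100 (complete control) scale.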

[2] = system: canarygrass; assay: Test D preemergence; assay type: in vivo, Phalaris minor; conditions: Phalaris minor, pre-emergence
Procedure, shortened: as §1

[3] = system: blackgrass; assay: Test D preemergence; assay type: in vivo, Alopecurus myosuroides; conditions: Alopecurus myosuroides, pre-emergence
Procedure, shortened: as §1

[4] = system: bluegrass; assay: Test D preemergence; assay type: in vivo, Poa annua; conditions: Poa annua, pre-emergence
Procedure, shortened: as §1

[5] = system: barnyardgrass; assay: Test E postemergence; assay type: in vivo, Echinochloa crus-galli; conditions: Echinochloa crus-galli, post-emergence, read-out: Plant response rating, Barnyardgrass
Procedure, shortened: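 Compound in a non-phytotoxic solvent mixture with surfactant was applied preemergence to seeds in silt loam soil, or postemergence to plants 2 to 18 cm tall grown in peat-based potting medium. Plants were kept in a greenhouse for 14 to 21 days, then rated visually against untreated controls on a 0 (no effect) to 100 (complete control) scale.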

[6] = system: wild oat; assay: Test D postemergence; assay type: in vivo, Avena fatua; conditions: Avena fatua, post-emergence
Procedure, shortened: as §1

[7] = system: lambsquarters; assay: Test D postemergence; assay type: in vivo, Chenopodium album; conditions: Chenopodium album, post-emergence
Procedure, shortened: as §1

[8] = system: winter barley; assay: Test D postemergence; assay type: in vivo, Hordeum vulgare; conditions: Hordeum vulgare, post-emergence, Postemergence, scale 0 to 100 (0 no effect, 100 complete control), read-out: Plant response rating, Barley, Winter
Procedure, shortened: as §1

[9] = system: spring barley; assay: Test D postemergence; assay type: in vivo, Hordeum vulgare; conditions: Hordeum vulgare, post-emergence, Postemergence, scale 0 to 100 (0 no effect, 100 complete control), read-out: Plant response rating, Barley, Spring
Procedure, shortened: as §1

[10] = system: chamomile; assay: Test D postemergence; assay type: in vivo, Matricaria inodora; conditions: Tripleurospermum inodorum, post-emergence
Procedure, shortened: as §1

[11] = system: bromegrass, downy; assay: Test D postemergence; assay type: in vivo, Bromus tectorum; conditions: Bromus tectorum, post-emergence, Postemergence, scale 0 to 100 (0 no effect, 100 complete control), read-out: Plant response rating, Bromegrass, Downy
Procedure, shortened: as §1

[12] = system: green foxtail; assay: Test D preemergence; assay type: in vivo, Setaria viridis; conditions: Setaria viridis, pre-emergence
Procedure, shortened: as §1

[13] = system: bromegrass, downy; assay: Test D preemergence; assay type: in vivo, Bromus tectorum; conditions: Bromus tectorum, pre-emergence
Procedure, shortened: as §1

SMILES: Clc1cnc(Oc2ccccc2-n2cc(Br)cn2)nc1 [Compound 7, 2-[2-(4-bromo-1H-pyrazol-1-yl)phenoxy]-5-chloropyrimidine]
- pest or weed control at 16 g/ha ([1]; 16 g ai/ha): 0%
- pest or weed control at 31 g/ha ([1]; 31 g ai/ha): 0%
- pest or weed control at 62 g/ha ([1]; 62 g ai/ha): 0%
- pest or weed control at 125 g/ha ([1]; 125 g ai/ha): 10%
- pest or weed control at 250 g/ha ([1]; 250 g ai/ha): 15%
- pest or weed control at 16 g/ha ([2]; 16 g ai/ha, scale 0 (no effect) to 100 (complete control), read-out: Plant response rating, Canarygrass): 0%
- pest or weed control at 31 g/ha ([2]; 31 g ai/ha, scale 0-100, read-out: Plant response rating, Canarygrass): 0%
- pest or weed control at 62 g/ha ([2]; 62 g ai/ha, scale 0-100, read-out: Plant response rating, Canarygrass): 0%
- pest or weed control at 125 g/ha ([2]; 125 g ai/ha, scale 0-100, read-out: Plant response rating, Canarygrass): 0%
- pest or weed control at 250 g/ha ([2]; 250 g ai/ha, scale 0-100, read-out: Plant response rating, Canarygrass): 25%
- pest or weed control at 16 g/ha ([3]; 16 g ai/ha, scale 0 (no effect) to 100 (complete control), read-out: Plant response rating, Blackgrass): 0%
- pest or weed control at 31 g/ha ([3]; 31 g ai/ha, scale 0-100, read-out: Plant response rating, Blackgrass): 0%
- pest or weed control at 62 g/ha ([3]; 62 g ai/ha, scale 0-100, read-out: Plant response rating, Blackgrass): 0%
- pest or weed control at 125 g/ha ([3]; 125 g ai/ha, scale 0-100, read-out: Plant response rating, Blackgrass): 0%
- pest or weed control at 250 g/ha ([3]; 250 g ai/ha, scale 0-100, read-out: Plant response rating, Blackgrass): 15%
- pest or weed control at 16 g/ha ([4]; 16 g ai/ha, scale 0 (no effect) to 100 (complete control), read-out: Plant response rating, Bluegrass): 0%
- pest or weed control at 31 g/ha ([4]; 31 g ai/ha, scale 0-100, read-out: Plant response rating, Bluegrass): 0%
- pest or weed control at 62 g/ha ([4]; 62 g ai/ha, scale 0-100, read-out: Plant response rating, Bluegrass): 0%
- pest or weed control at 125 g/ha ([4]; 125 g ai/ha, scale 0-100, read-out: Plant response rating, Bluegrass): 30%
- pest or weed control at 250 g/ha ([4]; 250 g ai/ha, scale 0-100, read-out: Plant response rating, Bluegrass): 40%
- pest or weed control at 31 g/ha ([5]; Postemergence, 31 g ai/ha, scale 0 to 100): 0%
- pest or weed control at 62 g/ha ([5]; Postemergence, 62 g ai/ha, scale 0 to 100): 10%
- pest or weed control at 125 g/ha ([5]; Postemergence, 125 g ai/ha, scale 0 to 100): 10%
- pest or weed control at 8 g/ha ([5]; postemergence, 8 g ai/ha, scale 0 to 100, 0 no effect, 100 complete control): 0%
- pest or weed control at 16 g/ha ([5]; postemergence, 16 g ai/ha, scale 0 to 100, 0 no effect, 100 complete control): 0%
- pest or weed control at 16 g/ha ([6]; 16 g ai/ha, scale 0-100, read-out: Plant response rating, Oat, Wild): 0%
- pest or weed control at 31 g/ha ([6]; 31 g ai/ha, scale 0 to 100 (0 no effect, 100 complete control), read-out: Plant response rating, Oat, Wild): 0%
- pest or weed control at 62 g/ha ([6]; 62 g ai/ha, scale 0 to 100 (0 no effect, 100 complete control), read-out: Plant response rating, Oat, Wild): 0%
- pest or weed control at 125 g/ha ([6]; 125 g ai/ha, scale 0 to 100 (0 no effect, 100 complete control), read-out: Plant response rating, Oat, Wild): 10%
- pest or weed control at 250 g/ha ([6]; 250 g ai/ha, scale 0 to 100 (0 no effect, 100 complete control), read-out: Plant response rating, Oat, Wild): 25%
- pest or weed control at 16 g/ha ([7]; 16 g ai/ha, scale 0-100, read-out: Plant response rating, Lambsquarters): 70%
- pest or weed control at 31 g/ha ([7]; 31 g ai/ha, scale 0 to 100 (0 no effect, 100 complete control), read-out: Plant response rating, Lambsquarters): 70%
- pest or weed control at 62 g/ha ([7]; 62 g ai/ha, scale 0 to 100 (0 no effect, 100 complete control), read-out: Plant response rating, Lambsquarters): 80%
- pest or weed control at 125 g/ha ([7]; 125 g ai/ha, scale 0 to 100 (0 no effect, 100 complete control), read-out: Plant response rating, Lambsquarters): 90%
- pest or weed control at 250 g/ha ([7]; 250 g ai/ha, scale 0 to 100 (0 no effect, 100 complete control), read-out: Plant response rating, Lambsquarters): 100%
- plant injury at 16 g/ha ([8]; 16 g ai/ha): 0%
- plant injury at 31 g/ha ([8]; 31 g ai/ha): 0%
- plant injury at 62 g/ha ([8]; 62 g ai/ha): 0%
- plant injury at 125 g/ha ([8]; 125 g ai/ha): 0%
- plant injury at 250 g/ha ([8]; 250 g ai/ha): 0%
- plant injury at 16 g/ha ([9]; 16 g ai/ha): 0%
- plant injury at 31 g/ha ([9]; 31 g ai/ha): 0%
- plant injury at 62 g/ha ([9]; 62 g ai/ha): 0%
- plant injury at 125 g/ha ([9]; 125 g ai/ha): 5%
- plant injury at 250 g/ha ([9]; 250 g ai/ha): 5%
- pest or weed control at 16 g/ha ([10]; 16 g ai/ha, scale 0-100, read-out: Plant response rating, Chamomile): 0%
- pest or weed control at 31 g/ha ([10]; 31 g ai/ha, scale 0 to 100 (0 no effect, 100 complete control), read-out: Plant response rating, Chamomile): 0%
- pest or weed control at 62 g/ha ([10]; 62 g ai/ha, scale 0 to 100 (0 no effect, 100 complete control), read-out: Plant response rating, Chamomile): 0%
- pest or weed control at 125 g/ha ([10]; 125 g ai/ha, scale 0 to 100 (0 no effect, 100 complete control), read-out: Plant response rating, Chamomile): 0%
- pest or weed control at 250 g/ha ([10]; 250 g ai/ha, scale 0 to 100 (0 no effect, 100 complete control), read-out: Plant response rating, Chamomile): 0%
- pest or weed control at 16 g/ha ([11]; 16 g ai/ha): 0%
- pest or weed control at 31 g/ha ([11]; 31 g ai/ha): 0%
- pest or weed control at 62 g/ha ([11]; 62 g ai/ha): 0%
- pest or weed control at 125 g/ha ([11]; 125 g ai/ha): 5%
- pest or weed control at 250 g/ha ([11]; 250 g ai/ha): 5%
- pest or weed control at 16 g/ha ([12]; 16 g ai/ha, scale 0 (no effect) to 100 (complete control), read-out: Plant response rating, Foxtail, Green): 0%
- pest or weed control at 31 g/ha ([12]; 31 g ai/ha, scale 0-100, read-out: Plant response rating, Foxtail, Green): 0%
- pest or weed control at 62 g/ha ([12]; 62 g ai/ha, scale 0-100, read-out: Plant response rating, Foxtail, Green): 0%
- pest or weed control at 125 g/ha ([12]; 125 g ai/ha, scale 0-100, read-out: Plant response rating, Foxtail, Green): 0%
- pest or weed control at 250 g/ha ([12]; 250 g ai/ha, scale 0-100, read-out: Plant response rating, Foxtail, Green): 20%
- pest or weed control at 16 g/ha ([13]; 16 g ai/ha, scale 0 (no effect) to 100 (complete control), read-out: Plant response rating, Bromegrass, Downy): 0%
- pest or weed control at 31 g/ha ([13]; 31 g ai/ha, scale 0-100, read-out: Plant response rating, Bromegrass, Downy): 0%
- pest or weed control at 62 g/ha ([13]; 62 g ai/ha, scale 0-100, read-out: Plant response rating, Bromegrass, Downy): 0%
- pest or weed control at 125 g/ha ([13]; 125 g ai/ha, scale 0-100, read-out: Plant response rating, Bromegrass, Downy): 0%
- pest or weed control at 250 g/ha ([13]; 250 g ai/ha, scale 0-100, read-out: Plant response rating, Bromegrass, Downy): 0%
